Read-outs that look alike come from different tables or passages of the source.
Key:
[1] = test system: gastric emptying in fasted rats; test: Gastric emptying in fasted rats (phenol red methylcellulose meal); format: in vivo, rat (Wistar)
Method: To examine the effects of compounds of the invention in a model for gastroparesis, compounds were evaluated for possible effects on gastric emptying in fasted rats.
GHRP-6 and test samples were dissolved in vehicle of 9% HPBCD/0.9% NaCl. Immediately following oral administration of methylcellulose (2%) containing phenol red (0.05%) (2 mL/rat), test substances or vehicle (9% HPBCD/0.9% NaCl) were each administered intravenously (i.v.) at a dosing volume of 5 mL/kg.
Male Wistar rats were provided by LASCO (A Charles River Licensee Corporation, Taiwan). Space allocation for 6 animals was 45×23×15 cm. Animals were housed in APEC® cages and maintained in a controlled temperature (22° C.-24° C.) and humidity (60%-80%) environment with 12 h light, 12 h dark cycles for at least one week in the laboratory prior to being used. Free access to standard lab chow for rats (Lab Diet, Rodent Diet, PMI Nutrition International, USA) and tap water was granted. All aspects of this work including housing, experimentation and disposal of animals were performed in general accordance with the Guide for the Care and Use of Laboratory Animals (National Academy Press, Washington, D.C., 1996).
Test substances were each administered intravenously to a group of 5 O/N-fasted Wistar derived male rats weighing 200±20 g immediately after methylcellulose (2%) containing phenol red (0.05%) was administered orally at 2 mL/animal. […] Following protein precipitation by 20% trichloroacetic acid (0.5 mL) and re-alkalization of the supernatant with 0.1 N NaOH, total phenol red remaining in the stomach was determined by a colorimetric method at 560 nm. A 30 percent or more (≧30%) increase in gastric emptying, detected as the decrease in phenol red concentration in the stomach relative to the vehicle control group, is considered significant.
• 1. […] Total phenol red remaining in the stomach was quantified by a colorimetric method at 560 nm. • 5. A >30% increase in gastric emptying, detected based on the phenol red concentration in comparison to the control group, is considered significant. […]

[2] = molecular target: T1, human ghrelin receptor (hGHS-R1a) (Homo sapiens, UniProt Q92847); conditions: Table 4; functional (agonist) activity at human ghrelin receptor; TFA salts unless otherwise noted
T1 sequence (Q92847 whole entry): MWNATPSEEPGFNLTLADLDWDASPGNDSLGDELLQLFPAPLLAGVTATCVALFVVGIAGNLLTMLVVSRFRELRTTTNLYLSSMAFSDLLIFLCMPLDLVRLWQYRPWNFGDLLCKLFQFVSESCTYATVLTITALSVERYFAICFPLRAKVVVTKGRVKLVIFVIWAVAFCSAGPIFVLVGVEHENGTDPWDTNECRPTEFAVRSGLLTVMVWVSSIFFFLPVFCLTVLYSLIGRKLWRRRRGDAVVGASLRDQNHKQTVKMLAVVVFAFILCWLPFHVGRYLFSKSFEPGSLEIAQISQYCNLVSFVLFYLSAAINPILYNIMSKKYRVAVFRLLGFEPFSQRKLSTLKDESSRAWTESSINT
From the text: (§1) B. Aequorin Functional Assay (Ghrelin Receptor)
(§2) This cell line is typically constructed by transfection of the human ghrelin receptor into CHO-K1 cells co-expressing Gα16 and the mitochondrially targeted Aequorin (Ref #ES-WT-A5). • 1. […] Assay buffer: DMEM (Dulbecco's Modified Eagles Medium) containing 0.1% BSA (bovine serum albumin; pH 7.0). • 3. Coelenterazine (Molecular Probes, Leiden, The Netherlands). Final test concentrations (N=8) for compounds of the invention: 10, 1, 0.3, 0.1, 0.03, 0.01, 0.003, 0.001 μM. Compound Handling
(§3) Assay plates were then prepared by appropriate dilution in DMEM medium containing 0.1% BSA. Under these conditions, the maximal final DMSO concentration in the assay was <0.6%.
(§4) AequoScreen™ cells were collected from culture plates with Ca^2+ and Mg^2+-free phosphate buffered saline (PBS) supplemented with 5 mM EDTA, pelleted for 2 min at 1000×g, re-suspended in DMEM—Ham's F12 containing 0.1% BSA at a density of 5×10^6 cells/mL, and incubated O/N at rt in the presence of 5 μM coelenterazinc. After loading, cells were diluted with assay buffer to a concentration of 5×10^5 cells/mL.
(§5) For agonist testing, 50 μL of the cell suspension was mixed with 50 μL of the appropriate concentration of test compound or ghrelin (reference agonist) in 96-well plates (duplicate samples). Ghrelin (reference agonist) was tested at several concentrations concurrently with the test compounds in order to validate the experiment. The emission of light resulting from receptor activation in response to ghrelin or test compounds was recorded using the Hamamatsu FDSS 6000 reader (Hamamatsu Photonics K.K., Japan).
Analysis and Expression of Results
(§6) Results were expressed as Relative Light Units (RLU). […] EC50, Hill slope and % Emax values are reported.
(§7) Key Aspects of Method • 1. Assay performed on CHO-K1 cells expressing the transfected, cloned human ghrelin receptor (hGHS-R1a) and Gα16. • 2. Suspended cells incubated O/N with coelenterazine. • 3. Stimulation of hGHS-R1a activates Gα16, causing intercellular Ca2+ release which ultimately leads to the oxidation of coelenterazine and the emission of a quantitative luminescent signal. • 4. Ghrelin was used as the positive control. • 5.

[3] = from CCC[C@@H](C(=O)N(C)[C@H](C)C(=O)N[C@H](Cc1ccccc1)C(=O)O)N(C[C@@H](C)Oc1ccccc1CCCN)C(=O)OC(C)(C)C; amide bond; DEPBT; THF; 25.0 mM; 25.0 °C; 16.0 h
[4] = molecular target: T2, human growth hormone secretagogue receptor (hGHS-R1a) (Homo sapiens, UniProt Q92847); test: Competitive radioligand binding assay (ghrelin receptor), [125I]-ghrelin displacement
T2 construct: purchased PerkinElmer BioSignal #RBHGHSM, lot#1887; host or cells: HEK-293, stably transfected
T2 sequence (Q92847 whole entry): as above
Method: The competitive binding assay at the human growth hormone secretagogue receptor (hGHS-R1a) was carried out analogously to assays described in the literature.
Multiscreen Harvest plates-GF/C (Millipore, #MAHFC1H60) • 4. […] Bottom seal (Millipore, #MATAH0P00) • 7. […] Binding Buffer: 25 mM Hepes (pH 7.4), 1 mM CaCl2, 5 mM MgCl2, 2.5 mM EDTA, 0.4% BSA Assay Volumes
Competition experiments were performed in a 300 μl filtration assay format. • 1. 220 μL of membranes diluted in binding buffer • 2. 40 μL of compound diluted in binding buffer • 3. […] Compound Handling
Compounds were provided frozen on dry ice at a stock concentration of 10 mM diluted in 100% DMSO and stored at −80° C. until the day of testing. On the test day, compounds were allowed to thaw at rt O/N and then diluted in assay buffer according to the desired test concentrations.
Plates were sealed with TopSeal-A, vortexed gently and incubated at rt for 30 min. The reaction was arrested by filtering samples through Multiscreen Harvest plates (pre-soaked in 0.5% polyethyleneimine) using a Tomtec Harvester, washed 9 times with 500 μL of cold 50 mM Tris-HCl (pH 7.4, 4° C.), and then plates were air-dried in a fumehood for 30 min. A bottom seal was applied to the plates prior to the addition of 25 μL of MicroScint-0 to each well. […] Results were expressed as counts per minute (cpm).
Data were analyzed by GraphPad Prism (GraphPad Software, San Diego, Calif.) using a variable slope non-linear regression analysis.
Compound structures for Tables 3A, 3B and 3D are presented with the various groups as defined for the general structure of formula I. For Tables 3B and 3D, in all entries, m, n and p are 0; X, Z1 and Z2 are each NH. For Table 3B, R1 is H for all entries. The tethers (T) are illustrated with the bonding to X and Z2 as indicated. The compounds themselves are shown for Table 3C.
• 1. […] Key Aspects of Method • 1. […] Results

[5] = molecular target: T1, human ghrelin receptor (hGHS-R1a); test: cell-based
From the text: as §1, §2, §3, §4, §5
Analysis and Expression of Results
as §6, §7

morphine-treated rats = test: Gastric emptying and gastrointestinal transit in model of opioid-delayed gastric emptying; format: in vivo, rat (Sprague-Dawley); conditions: 3 mg/kg s.c.
From the text: 7. The Effect of Compounds of the Invention on Gastric Emptying and Gastrointestinal Transit in a Model of Opioid-Delayed Gastric Emptying
Opioid analgesics, such as morphine, are well known to delay gastrointestinal transit which is an important side-effect for this class of drugs. The clinical term for this syndrome is opioid bowel dysfunction (OBD). Importantly, patients recovering from abdominal surgery experience post-operative ileus that is further exacerbated by concomitant opioid therapy for post-surgical pain.
• 1. […] Methods • 1. Rats (male, Sprague-Dawley, 250-300 g) are implanted with jugular vein catheters to accommodate dosing of test articles. • 2. Overnight-fasted rats are administered morphine (3 mg/kg s.c.). • 3. […] Radioactivity (^99mTc) in each tissue isolate is measured as a means of measuring the transit of the meal. Results

[6] = Table 3C, binding activity at the human ghrelin receptor, class symbols, read-out: Ki
[7] = Table 4, binding at human ghrelin receptor, TFA salts unless otherwise noted, read-out: Ki
[8] = binding activity at the human ghrelin receptor, [125I]-ghrelin displacement, hGHS-R1a/HEK-293 membranes, read-out: Ki
[9] = [125I]-ghrelin displacement, hGHS-R1a HEK-293 membranes, read-out: Binding Activity at the Human Ghrelin Receptor (Ki)

Row | Compound | Ki [4, 7] [nM] | Ki [4, 8] [nM] | EC50 [5] [nM] | other results
1 | CCC(C)C1NCCOc2ccccc2CCCNC(=O)C(Cc2ccc(Cl)cc2)NC(=O)C(C)N(C)C1=O (stereo not shown) [compound 25] |  |  |  | gastric emptying ([1]; 30 μg/kg): demonstrated gastric emptying; increase in gastric emptying relative to the vehicle control group ([1]; 100 μg/kg i.v., fasted rats, 15 min): 39%; EC50 [2]: 1 to 100 nM
2 | CCC[C@H]1C(=O)N(C)[C@H](C)C(=O)N[C@H](Cc2ccccc2)C(=O)NCCCc2ccccc2O[C@H](C)CN1C(=O)OC(C)(C)C |  |  |  | ring closure, yield of all isomers [3]: 80%
3 | C[C@H]1NC(=O)C2(CCCC2)NCCOc2ccccc2C=CCNC(=O)[C@H](Cc2cccc(Cl)c2)NC1=O (stereo in doubt) [compound 351] | 10 to 100 |  |  | Ki [4, 6]: 10 to 100 nM; EC50 [2]: 1 to 100 nM
4 | CCC(C)C1NCCOc2cccnc2CCCNC(=O)C(Cc2ccccc2)NC(=O)C(C)N(C)C1=O (stereo not shown) [compound 177] | 10 to 100 | 10 to 100 | 1 to 100 | 
5 | CCC(C)C1NCc2ccccc2CC=CCNC(=O)C(Cc2ccccc2)NC(=O)C(C)N(C)C1=O (stereo not shown) [compound 193] | 100 to 1000 |  | 100 to 1000 | Ki [4, 9]: 100 to 10000 nM
6 | CCCC1NCCOc2ccccc2CCCNC(=O)C(Cc2ccc(O)cc2)NC(=O)CN(C)C1=O (stereo not shown) [compound 7] | 100 to 1000 | 100 to 10000 | 1 to 100 | 
7 | CCC(C)C1NCc2ccccc2CCCCCNC(=O)C(Cc2ccccc2)NC(=O)C(C)N(C)C1=O (stereo not shown) [compound 38] | 10 to 100 | 10 to 100 | 100 to 1000 | 
8 | COc1ccc(CC2NC(=O)C3(CCCC3)NC(=O)C(CC(C)C)NCCOc3ccccc3C=CCNC2=O)cc1 (stereo not shown) [compound 156] | 10 to 100 | 10 to 100 | 1 to 100 | 
9 | O=C1NC/C=C/c2ccccc2OCCNC2(CCCC2)C(=O)NC2(CCCC2)C(=O)N[C@H]1Cc1ccccc1 [compound 18] | 10 to 100 | 10 to 100 |  | Ki [4, 6]: 10 to 100 nM; EC50 [2]: 1 to 100 nM
10 | CCCCC1NCCOc2ccccc2CCCNC(=O)C(Cc2ccccc2)NC(=O)CN(C)C1=O (stereo not shown) [Compound 1] | 10 to 100 | 10 to 100 | 100 to 1000 | 
11 | CCN(CC)CCNC(=O)c1cc(Cl)c(N)cc1OC [metoclopramide, Metoclopramide, reference compound] |  |  |  | gastric emptying of a solid meal in naïve rat ([1]; i.v. immediately after meal, 15 min): significant gastric emptying
12 | CCC(C)C1NCCOc2ccccc2C2CC2CNC(=O)C(Cc2cccc(Cl)c2)NC(=O)C2(CCCC2)NC1=O (stereo not shown) [compound 388] | 0.1 to 10 |  | 1 to 100 | Ki ([4]; Table 3B, binding at human ghrelin receptor, [125I]-ghrelin displacement, read-out: Ki): 0.1 to 10 nM
13 | CCC(C)C1NCCCc2ccccc2CCCCNC(=O)C(Cc2ccccc2)NC(=O)C(C)N(C)C1=O (stereo not shown) [compound 192] | 10 to 100 |  | 100 to 1000 | Ki [4, 9]: 10 to 100 nM
14 | CCC(C)C1NCCOc2ccccc2CCCNC(=O)C(Cc2ccc(-c3ccccc3)cc2)NC(=O)C(C)N(C)C1=O (stereo not shown) [compound 28] | 10 to 100 | 10 to 100 | 1 to 100 | 
15 | CCC(C)C1NCCc2ccccc2CCCNC(=O)C(Cc2ccccc2)NC(=O)C(C)N(C)C1=O (stereo not shown) [compound 214] | 100 to 1000 |  | 100 to 1000 | Ki [4, 9]: 100 to 10000 nM
16 | CCC(C)C1NCc2ccccc2CC=CCCNC(=O)C(Cc2ccccc2)NC(=O)C(C)N(C)C1=O (stereo not shown) [compound 195] | 10 to 100 |  | 1 to 100 | Ki [4, 9]: 10 to 100 nM
17 | CCC(C)C1NCCOc2ccccc2C=CCNC(=O)C(Cc2ccccc2)NC(=O)C(C)N(C)C1=O (stereo not shown) [compound 40] | 0.1 to 10 | 0.1 to 10 | 1 to 100 | 
18 | CN1CC[C@]23c4c5ccc(O)c4O[C@H]2[C@@H](O)C=C[C@H]3[C@H]1C5 [Morphine] |  |  |  | gastric emptying and intestinal transit (morphine-treated rats): significantly delayed gastric emptying and intestinal transit

Reference: patent publication USRE42013E1, “Macrocyclic modulators of the ghrelin receptor” (Tranzyme Pharma Inc., priority 2003, dated 2010)
